Active and inactive are the calls of the source. The rule behind the calls is not given here.
Tests used:
[1] = target: Histone-lysine N-methyltransferase KMT5C (Homo sapiens) (UniProt Q86Y97); assay: Inhibition of human SUV420H2 using Biotin-tagged H4K20me1 and [3H-SAM] as substrate incubated for 2 hrs by scintillation proximity assay
Homo sapiens [2] = species on record: Homo sapiens; assay: Inhibition of human Gastric receptor I at 10 uM relative to control
[3] = target: Sodium-dependent noradrenaline transporter (Homo sapiens) (UniProt P23975); assay: Inhibition of human Norepinephrine transporter at 10 uM relative to control
[4] = target: Cyclin-dependent kinase 2 (Homo sapiens) (UniProt P24941); assay: Inhibition of human CDK2 at 10 uM relative to control
[5] = target: Histone-lysine N-methyltransferase KMT5B (Homo sapiens) (UniProt Q4FZB7); assay: Binding affinity to recombinant human 6His-(Tev)-G-SUV420H1 (69 to 335 residues) assessed as increase thermal stability by measuring change in melting temperature at 50 uM in the presence of SAM by thermal shift assay
Histone-lysine N-methyltransferase KMT5B (Homo sapiens), sequence (Q4FZB7 whole entry, looked up, the tested form may be a part): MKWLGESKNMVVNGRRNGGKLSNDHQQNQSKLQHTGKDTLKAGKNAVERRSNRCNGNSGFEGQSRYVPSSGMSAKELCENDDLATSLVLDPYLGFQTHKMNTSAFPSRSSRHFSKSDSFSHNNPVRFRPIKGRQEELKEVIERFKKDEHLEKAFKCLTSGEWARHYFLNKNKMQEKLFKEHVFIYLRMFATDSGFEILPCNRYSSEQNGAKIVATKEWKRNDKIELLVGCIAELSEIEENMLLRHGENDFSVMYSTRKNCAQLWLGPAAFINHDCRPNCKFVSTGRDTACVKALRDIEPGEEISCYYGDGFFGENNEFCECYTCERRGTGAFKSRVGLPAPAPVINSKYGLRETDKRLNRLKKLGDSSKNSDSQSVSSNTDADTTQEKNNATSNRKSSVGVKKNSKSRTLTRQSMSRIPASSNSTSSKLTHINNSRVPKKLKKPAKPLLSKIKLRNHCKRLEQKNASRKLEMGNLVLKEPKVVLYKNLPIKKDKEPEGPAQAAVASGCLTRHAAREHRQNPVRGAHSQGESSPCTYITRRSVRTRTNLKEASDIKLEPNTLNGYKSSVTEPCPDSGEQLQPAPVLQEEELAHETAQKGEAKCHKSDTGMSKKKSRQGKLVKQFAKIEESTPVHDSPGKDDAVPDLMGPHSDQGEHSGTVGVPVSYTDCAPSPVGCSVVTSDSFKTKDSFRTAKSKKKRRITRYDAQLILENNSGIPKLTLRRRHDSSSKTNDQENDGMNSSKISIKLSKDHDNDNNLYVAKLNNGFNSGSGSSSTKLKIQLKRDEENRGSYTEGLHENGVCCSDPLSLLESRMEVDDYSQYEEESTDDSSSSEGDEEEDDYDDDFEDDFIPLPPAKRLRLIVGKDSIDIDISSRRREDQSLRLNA

U2OS [6] = assay: Induction of DNA repair in human U2OS cells expressing I-SceI reporter assessed as increase in H4K20me1 level by Western blot analysis; format: functional, cell-based
[7] = target: Protein arginine N-methyltransferase 8 (Homo sapiens) (UniProt Q9NR22); assay: Inhibition of PRMT8 (unknown origin) using Biotin-tagged H4K20me1 and [3H-SAM] as substrate at 1 to 10 uM incubated for 2 hrs by scintillation proximity assay; details: dose 1-10 µM
Protein arginine N-methyltransferase 8 (Homo sapiens), sequence (Q9NR22 2-394 limits assumed): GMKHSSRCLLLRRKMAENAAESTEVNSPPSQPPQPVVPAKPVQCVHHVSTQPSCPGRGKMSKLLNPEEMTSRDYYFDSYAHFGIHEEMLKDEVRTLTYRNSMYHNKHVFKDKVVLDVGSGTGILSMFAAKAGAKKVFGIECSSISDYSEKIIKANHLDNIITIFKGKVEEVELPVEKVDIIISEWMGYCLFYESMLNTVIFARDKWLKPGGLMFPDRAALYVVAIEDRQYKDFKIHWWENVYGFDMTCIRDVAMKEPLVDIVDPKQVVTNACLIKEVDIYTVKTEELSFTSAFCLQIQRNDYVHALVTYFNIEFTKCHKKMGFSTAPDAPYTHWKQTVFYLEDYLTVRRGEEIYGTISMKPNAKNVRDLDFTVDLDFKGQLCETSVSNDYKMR

Homo sapiens [8] = species on record: Homo sapiens; assay: Inhibition of DNMT3B/3L (unknown origin) at 1 to 10 uM incubated for 1 hrs by scintillation proximity assay; details: dose 1-10 µM
[9] = target: Aurora kinase A (Homo sapiens) (UniProt O14965); assay: Inhibition of human AurA at 10 uM relative to control
Aurora kinase A (Homo sapiens), sequence (O14965 whole entry): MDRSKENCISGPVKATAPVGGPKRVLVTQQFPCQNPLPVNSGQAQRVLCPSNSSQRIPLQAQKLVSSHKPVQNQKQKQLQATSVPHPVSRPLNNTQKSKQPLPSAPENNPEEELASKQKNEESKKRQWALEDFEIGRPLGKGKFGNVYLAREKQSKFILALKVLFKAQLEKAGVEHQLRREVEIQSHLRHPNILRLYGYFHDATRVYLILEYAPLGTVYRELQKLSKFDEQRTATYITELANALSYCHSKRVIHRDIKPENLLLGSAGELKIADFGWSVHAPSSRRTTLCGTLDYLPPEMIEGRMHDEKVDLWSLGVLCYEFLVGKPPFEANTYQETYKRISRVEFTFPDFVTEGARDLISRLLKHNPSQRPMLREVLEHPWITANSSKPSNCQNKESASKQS

[10] = target: Insulin receptor (Homo sapiens) (UniProt P06213); assay: Inhibition of human IRK at 10 uM relative to control
[11] = target: N-lysine methyltransferase KMT5A (Homo sapiens) (UniProt Q9NQR1); assay: Inhibition of SETD8 (unknown origin) using Biotin-tagged H4K20me1 and [3H-SAM] as substrate at 1 to 10 uM incubated for 2 hrs by scintillation proximity assay; details: dose 1-10 µM
N-lysine methyltransferase KMT5A (Homo sapiens), sequence (Q9NQR1 whole entry): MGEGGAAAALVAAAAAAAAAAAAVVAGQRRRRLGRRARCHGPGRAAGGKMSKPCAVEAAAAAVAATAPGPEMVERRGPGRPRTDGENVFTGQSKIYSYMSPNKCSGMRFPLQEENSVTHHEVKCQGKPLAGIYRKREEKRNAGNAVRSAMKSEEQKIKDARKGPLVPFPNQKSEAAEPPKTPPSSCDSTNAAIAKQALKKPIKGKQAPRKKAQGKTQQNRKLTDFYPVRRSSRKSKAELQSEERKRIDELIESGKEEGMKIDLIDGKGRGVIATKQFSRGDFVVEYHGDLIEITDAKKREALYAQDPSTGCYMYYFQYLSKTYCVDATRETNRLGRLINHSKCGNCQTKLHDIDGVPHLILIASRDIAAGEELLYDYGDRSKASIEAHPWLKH

[12] = target: Histone-lysine N-methyltransferase EZH2 (Homo sapiens) (UniProt Q15910); assay: Inhibition of EZH2 (unknown origin) using Biotin-tagged H4K20me1 and [3H-SAM] as substrate at 1 to 10 uM incubated for 2 hrs by scintillation proximity assay; details: dose 1-10 µM
Histone-lysine N-methyltransferase EZH2 (Homo sapiens), sequence (Q15910 whole entry, looked up): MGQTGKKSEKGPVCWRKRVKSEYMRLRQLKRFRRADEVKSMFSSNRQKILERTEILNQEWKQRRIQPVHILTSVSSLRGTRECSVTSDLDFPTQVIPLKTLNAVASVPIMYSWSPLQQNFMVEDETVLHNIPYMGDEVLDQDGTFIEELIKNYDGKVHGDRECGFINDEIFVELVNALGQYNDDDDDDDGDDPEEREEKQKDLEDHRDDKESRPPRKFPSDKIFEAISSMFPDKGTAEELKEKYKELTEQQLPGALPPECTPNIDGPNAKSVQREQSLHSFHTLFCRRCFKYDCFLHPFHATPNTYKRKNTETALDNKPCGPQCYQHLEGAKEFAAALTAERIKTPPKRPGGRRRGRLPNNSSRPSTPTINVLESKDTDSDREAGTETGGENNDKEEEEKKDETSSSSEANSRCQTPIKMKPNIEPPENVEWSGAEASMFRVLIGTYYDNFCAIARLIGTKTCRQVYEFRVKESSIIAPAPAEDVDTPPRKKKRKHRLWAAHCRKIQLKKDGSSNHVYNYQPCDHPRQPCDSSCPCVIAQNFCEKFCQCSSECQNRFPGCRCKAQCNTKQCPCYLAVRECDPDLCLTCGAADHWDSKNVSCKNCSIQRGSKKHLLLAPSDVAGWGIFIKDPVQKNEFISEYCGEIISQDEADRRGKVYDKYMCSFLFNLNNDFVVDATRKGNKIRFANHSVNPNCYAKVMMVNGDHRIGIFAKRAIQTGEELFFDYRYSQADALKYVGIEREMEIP

U2OS [13] = assay: Inhibition of colony formation in human U2OS cells at 1 uM incubated for 48 hrs in the presence of MMC by cell clonogenic assay; format: functional, cell-based
U2OS [14] = assay: Induction of DNA repair in human U2OS cells expressing I-SceI reporter assessed as substantially inhibition in NHEJ-mediated repair at 1 uM by flow cytometry analysis; format: functional, cell-based
HeLa = assay: Antiproliferative activity against human HeLa cells assessed as inhibition in H4K20me3 expression level for 21 doublings by Western blot analysis; format: functional, cell-based
[15] = target: Calcium/calmodulin-dependent protein kinase type II subunit alpha (Homo sapiens) (UniProt Q9UQM7); assay: Inhibition of human CaMK2alpha at 10 uM relative to control
Calcium/calmodulin-dependent protein kinase type II subunit alpha (Homo sapiens), sequence (Q9UQM7 whole entry): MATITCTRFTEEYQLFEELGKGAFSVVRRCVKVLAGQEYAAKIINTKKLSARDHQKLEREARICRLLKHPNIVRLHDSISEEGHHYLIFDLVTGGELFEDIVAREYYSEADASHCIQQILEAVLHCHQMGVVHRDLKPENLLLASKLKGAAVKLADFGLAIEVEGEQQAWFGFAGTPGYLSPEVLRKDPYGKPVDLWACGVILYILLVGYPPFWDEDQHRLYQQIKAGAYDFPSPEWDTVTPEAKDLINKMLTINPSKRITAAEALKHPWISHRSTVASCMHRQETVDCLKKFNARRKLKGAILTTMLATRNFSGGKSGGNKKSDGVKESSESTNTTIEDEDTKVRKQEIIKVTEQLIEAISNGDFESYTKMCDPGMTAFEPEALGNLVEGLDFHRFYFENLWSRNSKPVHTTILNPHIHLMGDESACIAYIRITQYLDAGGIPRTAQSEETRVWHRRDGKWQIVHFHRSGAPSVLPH

[16] = target: Hepatocyte growth factor receptor (Homo sapiens) (UniProt P08581); assay: Inhibition of human c-Met at 10 uM relative to control
[17] = target: Histone-lysine N-methyltransferase SUV39H1 (Homo sapiens) (UniProt O43463); assay: Inhibition of SUV39H1 (unknown origin) using Biotin-tagged H4K20me1 and [3H-SAM] as substrate at 1 to 10 uM incubated for 2 hrs by scintillation proximity assay; details: dose 1-10 µM
[18] = target: Serine/threonine-protein kinase Sgk1 (Homo sapiens) (UniProt O00141); assay: Inhibition of human SGK1 at 10 uM relative to control
Serine/threonine-protein kinase Sgk1 (Homo sapiens), sequence (O00141 whole entry, the tested form may be a part): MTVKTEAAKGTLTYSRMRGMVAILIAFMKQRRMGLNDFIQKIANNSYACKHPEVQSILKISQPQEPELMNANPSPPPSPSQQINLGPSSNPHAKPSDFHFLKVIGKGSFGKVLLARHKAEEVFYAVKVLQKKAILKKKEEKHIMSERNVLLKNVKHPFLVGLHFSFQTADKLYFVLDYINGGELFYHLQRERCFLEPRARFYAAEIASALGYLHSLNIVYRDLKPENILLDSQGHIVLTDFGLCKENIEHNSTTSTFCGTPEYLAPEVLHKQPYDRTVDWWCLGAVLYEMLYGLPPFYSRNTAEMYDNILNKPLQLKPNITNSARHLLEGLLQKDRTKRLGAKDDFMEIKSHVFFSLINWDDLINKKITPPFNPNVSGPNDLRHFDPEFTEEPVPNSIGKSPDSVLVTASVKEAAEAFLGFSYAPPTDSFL

[19] = target: Histone-lysine N-methyltransferase KMT5B (Homo sapiens) (UniProt Q4FZB7); assay: Inhibition of recombinant human 6His-(Tev)-G-SUV420H1 (69 to 335 residues) using Biotin-tagged H4K20me1 and [3H-SAM] as substrate at 10 uM incubated for 2 hrs by scintillation proximity assay
U2OS [20] = assay: Antiproliferative activity against human U2OS cells assessed as inhibition in H4K20me3 expression level 21 doublings by Western blot analysis; format: functional, cell-based
[21] = target: RAF proto-oncogene serine/threonine-protein kinase (Homo sapiens) (UniProt P04049); assay: Inhibition of human RAF-1 at 10 uM relative to control
RAF proto-oncogene serine/threonine-protein kinase (Homo sapiens), sequence (P04049 whole entry): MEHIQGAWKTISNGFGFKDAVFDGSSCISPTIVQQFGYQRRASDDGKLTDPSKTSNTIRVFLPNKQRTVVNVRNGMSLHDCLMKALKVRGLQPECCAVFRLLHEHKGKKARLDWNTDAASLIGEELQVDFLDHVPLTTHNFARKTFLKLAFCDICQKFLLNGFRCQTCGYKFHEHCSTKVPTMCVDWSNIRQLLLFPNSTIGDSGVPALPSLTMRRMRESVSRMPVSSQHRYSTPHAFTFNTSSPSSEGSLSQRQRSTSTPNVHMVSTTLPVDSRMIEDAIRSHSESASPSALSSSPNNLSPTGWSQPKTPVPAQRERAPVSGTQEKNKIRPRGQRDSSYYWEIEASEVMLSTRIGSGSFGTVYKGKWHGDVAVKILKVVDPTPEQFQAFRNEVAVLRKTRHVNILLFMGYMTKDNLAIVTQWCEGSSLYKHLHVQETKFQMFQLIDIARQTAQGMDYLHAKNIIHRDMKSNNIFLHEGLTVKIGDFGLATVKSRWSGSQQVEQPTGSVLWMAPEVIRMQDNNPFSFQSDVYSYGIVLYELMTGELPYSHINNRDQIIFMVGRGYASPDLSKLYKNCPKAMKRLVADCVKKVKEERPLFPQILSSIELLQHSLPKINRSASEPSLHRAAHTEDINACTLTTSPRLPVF

[22] = target: 3-phosphoinositide-dependent protein kinase 1 (Homo sapiens) (UniProt O15530); assay: Inhibition of human PDK1 at 10 uM relative to control
3-phosphoinositide-dependent protein kinase 1 (Homo sapiens), sequence (O15530 whole entry, looked up): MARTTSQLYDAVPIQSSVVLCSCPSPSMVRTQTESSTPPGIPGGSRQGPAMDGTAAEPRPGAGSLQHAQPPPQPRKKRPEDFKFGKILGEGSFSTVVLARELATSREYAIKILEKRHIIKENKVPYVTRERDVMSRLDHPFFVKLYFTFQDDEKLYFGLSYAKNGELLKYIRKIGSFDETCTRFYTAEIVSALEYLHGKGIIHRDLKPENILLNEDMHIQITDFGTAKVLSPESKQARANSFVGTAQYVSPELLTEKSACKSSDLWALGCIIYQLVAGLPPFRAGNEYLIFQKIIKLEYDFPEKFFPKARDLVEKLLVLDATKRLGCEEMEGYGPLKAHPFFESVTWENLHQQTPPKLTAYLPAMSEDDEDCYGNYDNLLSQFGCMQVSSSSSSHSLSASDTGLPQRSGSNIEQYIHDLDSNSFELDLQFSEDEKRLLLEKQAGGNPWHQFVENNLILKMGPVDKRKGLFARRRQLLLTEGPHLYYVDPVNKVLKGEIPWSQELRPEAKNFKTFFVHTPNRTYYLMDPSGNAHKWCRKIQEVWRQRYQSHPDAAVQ

[23] = target: Mitogen-activated protein kinase 8 (Homo sapiens) (UniProt P45983); assay: Inhibition of human JNK1 at 10 uM relative to control
[24] = target: MAP kinase-interacting serine/threonine-protein kinase 2 (Homo sapiens) (UniProt Q9HBH9); assay: Inhibition of human MNK2 at 10 uM relative to control
[25] = target: Histone-lysine N-methyltransferase SETD2 (Homo sapiens) (UniProt Q9BYW2); assay: Inhibition of SETD2 (unknown origin) using Biotin-tagged H4K20me1 and [3H-SAM] as substrate at 1 to 10 uM incubated for 2 hrs by scintillation proximity assay; details: dose 1-10 µM

## O=C(c1nnc(NC2CCCC2)c2cc(Cl)c(Cl)cc12)N1CCC(O)CC1
[1]
  inhibition: inactive
Homo sapiens [2]
  inhibition: -5%
[3]
  inhibition: 1%

## Clc1cc2c(NC3CCCC3)nnc(-c3ccncc3)c2cc1Cl
[4]
  inhibition: -1%
[5]
  ΔTm: 12.5 °C
U2OS [6]
  Activity: Active
[7]
  inhibition: inactive
Homo sapiens [8]
  inhibition: inactive
[9]
  inhibition: -6%
[10]
  inhibition: 7%
[11]
  inhibition: inactive
[12]
  inhibition: inactive
U2OS [13]
  inhibition: Active
U2OS [14]
  Activity: Active
HeLa
  Activity: Active
[15]
  inhibition: -5%
[16]
  inhibition: -4%
[17]
  inhibition: inactive
[18]
  inhibition: -4%
[19]
  inhibition: Active
U2OS [20]
  Activity: Active
[21]
  inhibition: 8%
[22]
  inhibition: -7%
[23]
  inhibition: -8%
[24]
  inhibition: 7%
[25]
  inhibition: inactive
